# Measured values reported in patent US12324447B2, “Animal feed compositions and uses thereof” (priority 2015, dated 2025).
# Entries after “also recorded” stand apart in the source; their conditions may differ. Like-named read-outs stand apart in the source and are kept apart here. Marks after values point to notes of the source that are not given here.
# Experiments:
# [1] = test system: Clostridium perfringens DSM756; format: cell-based; conditions: for Diameter of clearing zone (mm): lysozymes 100 μg/ml, Bacitracin zinc salt 50 μg/ml; for Antimicrobial activity against Clostridium perfringens (in words): RDA; for Diameter of clearing zone (mm), bracketed with *: Incomplete inhibition of growth visible after MTT colouring: lysozyme 100 μg/ml
# [2] = In vivo piglet trial (growth performance); set-up: species or system weaned piglets (Large-White x Redon); conditions: for ADFI (g/d), Mean / ADWG (g/d), Mean / FCR, Mean: SEQ ID NO: 257 50 mg/kg feed, VevoVital 5000 mg/kg feed; for ADFI, % relative NC / ADWG, % relative NC / FCR, % relative NC: relative to negative control
# [3] = In vivo broiler trial (growth performance)
# [4] = test system: Micrococcus lysodeikticus ATTC No. 4698; assay: Lysozyme activity turbidity assay (optical density drop at 540 nm); conditions: for Lysozyme activity against Micrococcus lysodeikticus (in words): OD drop assay
# [5] = test system: Exiguobacterium undea (DSM14481); assay: as above; format: biochemical, Exiguobacterium undae; conditions: for Lysozyme activity against Exiguobacterium undea (in words): OD drop assay
# [6] = Finisher (d 36-42), SEQ ID NO: 257 25 mg/kg feed, Avilamycin 10 mg/kg
# [7] = Finisher (d 36-42), relative to unsupplemented control
# [8] = Grower (d 22-36), SEQ ID NO: 257 25 mg/kg feed, Avilamycin 10 mg/kg
# [9] = Grower (d 22-36), relative to unsupplemented control
# [10] = Starter (d 1-22), SEQ ID NO: 257 25 mg/kg feed, Avilamycin 10 mg/kg
# [11] = Starter (d 1-22), relative to unsupplemented control
# [12] = Whole period (day 1 to day 42), SEQ ID NO: 257 25 mg/kg feed, Avilamycin 10 mg/kg
# [13] = Whole period, relative to unsupplemented control
molecule,measurement,setting,value
Bacitracin zinc salt [reference compound],Diameter of clearing zone (mm),"[1]; Experiment 1, 1/2 MHB pH 6",11 mm
same,Diameter of clearing zone (mm),"[1]; Experiment 1, 1/10 MHB pH 7",22 mm
same,Diameter of clearing zone (mm),"[1]; Experiment 2, 1/10 MHB pH 7",18 mm
"O=C(O)c1ccccc1 [VevoVital, benzoic acid]","ADFI (g/d), Mean",[2]; day 0-14,355 g/day
same,"ADWG (g/d), Mean",[2]; day 0-14,304 g/day
same,"FCR, Mean",[2]; day 0-14,1.168^a
same,"ADFI, % relative NC",[2]; day 0-14,98.6%
same,"ADWG, % relative NC",[2]; day 0-14,104.8%
same,"FCR, % relative NC",[2]; day 0-14,94.2%
same,"ADFI (g/d), Mean",[2]; day 0-42,709^ab g/d
same,"ADWG (g/d), Mean",[2]; day 0-42,526 g/day
same,"FCR, Mean",[2]; day 0-42,1.342^a
same,"ADFI, % relative NC",[2]; day 0-42,96.6%
same,"ADWG, % relative NC",[2]; day 0-42,105.4%
same,"FCR, % relative NC",[2]; day 0-42,90.4%
same,"ADFI (g/d), Mean",[2]; day 14-42,886^ab g/d
same,"ADWG (g/d), Mean",[2]; day 14-42,638 g/day
same,"FCR, Mean",[2]; day 14-42,1.398^a
same,"ADFI, % relative NC",[2]; day 14-42,95.3%
same,"ADWG, % relative NC",[2]; day 14-42,105.8%
same,"FCR, % relative NC",[2]; day 14-42,90.5%
same,Improvement on FCR compared to the negative control,"[2]; overall period (day 0 to day 42), lysozyme 50 mg/kg, VevoVital 5000 mg/kg",9.6%
same,Improvement of ADWG compared to NC,[2]; pre-starter period (days 0-14),4.8%
same,Improvement of ADWG compared to NC,[2]; starter period (days 14-42),5.8%
same,Improvement to FCR compared to NC,"[2]; starter period, from day 15 to day 42, SEQ ID NO: 257 50 mg/kg, VevoVital (PC)",9.5%
same,Improvement of ADWG compared to NC,[2]; whole period (day 0 to day 42),5.4%
"COC[C@H]1O[C@@H](OC2OC[C@@H]3O[C@]4(O[C@H]3[C@H]2OC(=O)C(C)C)O[C@H](C)[C@@](O)(C(C)=O)[C@@H]2OCO[C@H]24)[C@@H](OC)[C@@H](O)[C@@H]1O[C@@H]1O[C@H](C)[C@H](OC)[C@H](O[C@H]2C[C@@]3(C)OC4(C[C@@H](O)[C@H](O[C@H]5C[C@@H](O)[C@H](OC(=O)c6c(C)c(Cl)c(O)c(Cl)c6OC)[C@@H](C)O5)[C@@H](C)O4)O[C@@H]3[C@@H](C)O2)[C@H]1O (stereo partly drawn) [Avilamycin, reference compound]",FCR,[3]; [6],1.982
same,Feed intake (g/b),[3]; [6],1460 g/b
same,Weight gain (g/b),[3]; [6],738 g/b
same,"FCR, Relative to C (%)",[3]; [7],101.1%
same,"Feed intake, Relative to C (%)",[3]; [7],98.2%
same,"Weight gain, Relative to C (%)",[3]; [7],97.0%
same,FCR,[3]; [8],1.683
same,Feed intake (g/b),[3]; [8],2242 g/b
same,Weight gain (g/b),[3]; [8],1334 g/b
same,"FCR, Relative to C (%)",[3]; [9],97.7%
same,"Feed intake, Relative to C (%)",[3]; [9],98.1%
same,"Weight gain, Relative to C (%)",[3]; [9],100.4%
same,FCR,[3]; [10],1.452
same,Feed intake (g/b),[3]; [10],1593 g/b
same,Weight gain (g/b),[3]; [10],1102 g/b
same,"FCR, Relative to C (%)",[3]; [11],100.8%
same,"Feed intake, Relative to C (%)",[3]; [11],101.0%
same,"Weight gain, Relative to C (%)",[3]; [11],100.6%
same,EPEF,[3]; [12],397
same,FCR,[3]; [12],1.669
same,Feed intake (g/b),[3]; [12],5312 g/b
same,Motality,[3]; [12],12.5
same,Weight gain (g/b),[3]; [12],3184 g/b
same,"EPEF, Relative to C (%)",[3]; [13],95.0%
same,"FCR, Relative to C (%)",[3]; [13],99.3%
same,"Feed intake, Relative to C (%)",[3]; [13],99.3%
same,"Weight gain, Relative to C (%)",[3]; [13],99.9%
same,EPEF worse by (compared to NC diet),"[3]; whole period, Avilamycin 10 mg/kg",5.0%
same,FCR improvement compared to NC diet,"[3]; whole period, GH24 lysozyme 25 mg/kg, Avilamycin 10 mg/kg",0.7%
SEQ ID NO: 269: amino acid sequence deduced from SEQ ID NO: 268: GH24 catalytic domain with QCVG-linker and signal peptide; precursor of SEQ ID NO: 270 (protein) MAKVSTLTIALLTMASQARAQCVGCKPPPINAATVALIKEFEGFVPKPAPDPIGLPTVGYGHLCKTKGCKEVPYSFPLTQETATKLLQSDIKTFTSCVSNYVKDSVKLNDNQYGALASWAFNVGCGNVQTSSLIKRLNAGENPNTVAAQELPKWKYAGGKVMPGLVRRRNAEVALFKKPSSVQAHPPKC,Antimicrobial activity against Clostridium perfringens (in words),"[1]; 1/10 MHB, pH 7",incomplete inhibition of growth
same,Antimicrobial activity against Clostridium perfringens (in words),"[1]; 50% MHB, pH 6",no inhibition of growth
"SEQ ID NO: 291: mature GH24 lysozyme from Trichophaea minuta (protein, listed as Trichophaea minuta, mat_peptide (1)..(245), mature GH24 lysozyme from Trichophaea minuta) YPAKVDLRCRSSPSTSASVVRTYSKGSEIQISCQTTGTSVEGSNVWDKTQHGCYVADYYVKTGHSGIFTTKCGSSSGGGSCKPPPINAATVALIKEFEGFVAKPAPDPIGLPTVGYGHLCKTKGCKEVPYSFPLTQTTATKLLQSDIKTFTSCVSNYVKDSVKLNDNQFGALSSWAFNVGCGNIQTSSLIKRLNAGENPNTVAAQELPKWKYAGGKVLPGLVRRRKAEVALFKKPSSVQAHPPKC",Lysozyme activity against Micrococcus lysodeikticus (in words),[4],good activity
same,Lysozyme Activity against Micrococcus lysodeikticus as measured by Optical Density Drop,[4]; assay pH 6 (Table 14),++++
same,Lysozyme activity against Exiguobacterium undea (in words),[5],good activity
same,Lysozyme Activity against Exiguobacterium undae as measured by Optical Density Drop,[5]; assay pH 6 (Table 14),++++
"SEQ ID NO: 279: mature GH24 lysozyme from Acremonium alcalophilum, mature sequence of SEQ ID NO: 4 of WO 2013/076259; no LED (protein, listed as Acremonium alcalophilum, mat_peptide (1)..(166), no LED) QCVGPEVNSASINLIKEFEGWYPDIYVDPAGYPTVGYGHLCSDSSCSDVSYSIPLSEADGENLLRDDITNFQNCITWQTASSVVLNANQYGALVSWAFNVGCGASESSSLIARLNAGEDPNTVAEEELPRWNQGGGQVLPGLVRRRAAEVELHQIPTDVAALPACS",Diameter of clearing zone (mm),"[1]; Experiment 1, 1/2 MHB pH 6",0 mm
same,Diameter of clearing zone (mm),"[1]; Experiment 1, 1/10 MHB pH 7",0 mm
same,Diameter of clearing zone (mm),"[1]; Experiment 2, 1/10 MHB pH 7",0 mm
same,Antimicrobial activity against Clostridium perfringens (in words),[1]; tested conditions (1/10 MHB pH 7 and 1/2 MHB pH 6),do not have any activity; also recorded: did not inhibit growth
SEQ ID NO: 270: mature GH24 catalytic domain from Trichophaea saccata with QCVG-linker (SEQ ID NO: 257 lacking the LED) (protein) QCVGCKPPPINAATVALIKEFEGFVPKPAPDPIGLPTVGYGHLCKTKGCKEVPYSFPLTQETATKLLQSDIKTFTSCVSNYVKDSVKLNDNQYGALASWAFNVGCGNVQTSSLIKRLNAGENPNTVAAQELPKWKYAGGKVMPGLVRRRNAEVALFKKPSSVQAHPPKC,Lysozyme activity against Micrococcus lysodeikticus (in words),[4],no lysozyme activity
same,Lysozyme Activity against Micrococcus lysodeikticus as measured by Optical Density Drop,[4]; assay pH 6,−
same,Diameter of clearing zone (mm),"[1]; Experiment 1, 1/2 MHB pH 6",0 mm
same,"Diameter of clearing zone (mm), bracketed with *: Incomplete inhibition of growth visible after MTT colouring","[1]; Experiment 1, 1/10 MHB pH 7",(8)* mm
same,"Diameter of clearing zone (mm), bracketed with *: Incomplete inhibition of growth visible after MTT colouring","[1]; Experiment 2, 1/10 MHB pH 7",(5)* mm
same,Antimicrobial activity against Clostridium perfringens (in words),"[1]; 50% MHB, pH 6",no activity
"SEQ ID NO: 294: mature GH24 lysozyme from Chaetomium sp. ZY287 (protein, listed as Chaetomium sp., mat_peptide (1)..(249), mature GH24 lysozyme from Chaetomium sp; ZY287) YKISGSSVNCRSGPGTNYPVKKTYANGDEVTISCQTTGTNVEGNNIWDKTQHGCYVADKYVKTGKDGFVTKKCGSSGGGGGGKTCKAPKSNAATVDLIASFEGFRANIYTDATGHPTVGYGHMCTKSRCAEVKYKIPLSKADGKKLLADDMAKFEKCIKEMLNSKAKLNLNQYGALVSWSFNVGCGAAKGSQLVSRLNKGENPNTVLSNELPKWVHGNGKVLPGLVRRRNAEIALAKKSGSGAALPVKC",Lysozyme activity against Micrococcus lysodeikticus (in words),[4],good activity
same,Lysozyme Activity against Micrococcus lysodeikticus as measured by Optical Density Drop,[4]; assay pH 7 (Table 14),+++
same,Lysozyme activity against Exiguobacterium undea (in words),[5],good activity
same,Lysozyme Activity against Exiguobacterium undae as measured by Optical Density Drop,[5]; assay pH 7 (Table 14),+++
